Measurements as given in ChEMBL document CHEMBL1250536, “Identification of small molecule inhibitors of telomerase activity through transcriptional regulation of hTERT and calcium induction pathway in human lung adenocarcinoma A549 cells” (2010).
One block for each molecule: values may come before it. Calls of active or inactive are those of the source. The calls are words filed in the database; no cut-off is given here.

How the values were obtained:
[1] = target: Telomerase reverse transcriptase (Homo sapiens) (UniProt O14746); experiment: Inhibition of telomerase in human A549 cells at 25 uM after 24 hrs by TRAP assay; format: cell-based
Sequence of Telomerase reverse transcriptase (Homo sapiens) (O14746 whole entry): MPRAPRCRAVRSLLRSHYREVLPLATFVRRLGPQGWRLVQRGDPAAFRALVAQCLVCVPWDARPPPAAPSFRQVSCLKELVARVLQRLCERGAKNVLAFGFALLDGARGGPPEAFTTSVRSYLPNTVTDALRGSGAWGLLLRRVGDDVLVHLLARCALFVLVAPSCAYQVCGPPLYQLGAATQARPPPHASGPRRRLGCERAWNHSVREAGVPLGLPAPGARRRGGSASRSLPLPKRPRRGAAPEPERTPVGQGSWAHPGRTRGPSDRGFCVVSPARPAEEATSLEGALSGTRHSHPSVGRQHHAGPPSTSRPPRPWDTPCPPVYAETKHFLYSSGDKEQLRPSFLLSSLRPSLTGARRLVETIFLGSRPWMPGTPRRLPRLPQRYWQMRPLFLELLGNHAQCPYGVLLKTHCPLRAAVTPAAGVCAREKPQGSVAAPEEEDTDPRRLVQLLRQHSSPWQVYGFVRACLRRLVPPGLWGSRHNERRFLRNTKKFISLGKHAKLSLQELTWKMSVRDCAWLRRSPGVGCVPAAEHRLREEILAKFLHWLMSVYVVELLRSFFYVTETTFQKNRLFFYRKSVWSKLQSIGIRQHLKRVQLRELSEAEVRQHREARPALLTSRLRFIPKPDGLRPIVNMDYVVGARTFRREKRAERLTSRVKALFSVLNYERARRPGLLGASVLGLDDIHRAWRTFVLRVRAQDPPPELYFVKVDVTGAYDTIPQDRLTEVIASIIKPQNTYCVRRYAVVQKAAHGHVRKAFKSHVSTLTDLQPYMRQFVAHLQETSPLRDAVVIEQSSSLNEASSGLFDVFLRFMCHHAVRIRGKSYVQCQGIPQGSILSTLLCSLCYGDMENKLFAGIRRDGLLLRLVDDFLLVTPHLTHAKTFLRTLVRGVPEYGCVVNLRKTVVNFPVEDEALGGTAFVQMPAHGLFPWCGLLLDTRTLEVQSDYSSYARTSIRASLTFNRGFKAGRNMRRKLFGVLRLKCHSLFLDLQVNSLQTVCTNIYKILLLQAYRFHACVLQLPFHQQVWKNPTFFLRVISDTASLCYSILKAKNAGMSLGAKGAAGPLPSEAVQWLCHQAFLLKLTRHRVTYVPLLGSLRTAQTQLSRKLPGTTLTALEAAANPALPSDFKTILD

A549 [2] = experiment: Reduction of hTERT protein expression in human A549 cells at 25 uM after 24 hrs by immunofluorescence assay; format: functional, cell-based
A549 [3] = experiment: Reduction of colony formation in human A549 cells at 6.25 uM after 24 hrs by anchorage-independence cell growth assay relative to control; format: functional; parameters: scale not given: the % may be the effect or the level left
A549 [4] = experiment: Reduction of hTR mRNA expression in human A549 cells at up to 50 uM after 6 hrs by RT-PCR analysis; format: functional, cell-based
[5] = target: Telomerase reverse transcriptase (Homo sapiens) (UniProt O14746); experiment: Inhibition of telomerase in human A549 cells at 25 uM after 24 hrs by TRAP assay in presence of 20 uM of ERK inhibitor PD-98059 pretreated for 1 hr; format: cell-based
[6] = target: Telomerase reverse transcriptase (Homo sapiens) (UniProt O14746); experiment: Inhibition of telomerase in human A549 cells after 24 hrs by TRAP assay; format: cell-based
A549 [7] = experiment: Reduction of GADD153 mRNA expression in human A549 cells at up to 50 uM after 6 hrs by RT-PCR analysis; format: functional, cell-based
A549 [8] = experiment: Cytotoxicity against human A549 cells assessed as reduction of cell proliferation at 50 uM after 24 hrs by MTS assay; format: functional; parameters: scale not given: the % may be the effect or the level left
A549 [9] = experiment: Reduction of hTERT protein expression in human A549 cells at 25 uM after 24 hrs by immunofluorescence assay in presence of intracellular calcium chelator BAPTA-AM pretreated for 1 hr; format: functional, cell-based
A549 [10] = experiment: Reduction of hTERT mRNA expression in human A549 cells after 6 hrs by RT-PCR analysis in presence of 20 uM of intracellular calcium chelator BAPTA-AM pretreated for 1 hr; format: functional, cell-based
A549 [11] = experiment: Reduction of colony formation in human A549 cells at 25 uM after 24 hrs by anchorage-independence cell growth assay relative to control; format: functional; parameters: scale not given: the % may be the effect or the level left
[12] = target: Telomerase reverse transcriptase (Homo sapiens) (UniProt O14746); experiment: Inhibition of telomerase in human A549 cells at 25 uM after 24 hrs by TRAP assay in presence of 20 uM of 26S proteasome inhibitor MG132 pretreated for 1 hr; format: cell-based
A549 [13] = experiment: Translocation of hTERT from nuclei to cytoplasm in human A549 cells at 25 uM after 24 hrs by immunofluorescence assay; format: functional, cell-based
A549 [14] = experiment: Cytotoxicity against human A549 cells assessed as reduction of cell proliferation after 24 hrs by MTS assay; format: functional, cell-based
[15] = target: Telomerase reverse transcriptase (Homo sapiens) (UniProt O14746); experiment: Inhibition of telomerase in human A549 cells at 25 uM by TRAP assay; format: cell-based; settings: TDE = time-dependent effect
A549 [16] = experiment: Reduction of hTR mRNA expression in human A549 cells at 20 uM after 6 hrs by RT-PCR analysis; format: functional, cell-based
A549 [17] = experiment: Reduction of colony formation in human A549 cells at 12.5 uM after 24 hrs by anchorage-independence cell growth assay relative to control; format: functional; parameters: scale not given: the % may be the effect or the level left
A549 [18] = experiment: Reduction of hTERT mRNA expression in human A549 cells at 50 uM after 6 hrs by RT-PCR analysis; format: functional; parameters: scale not given: the % may be the effect or the level left
[19] = target: Telomerase reverse transcriptase (Homo sapiens) (UniProt O14746); experiment: Inhibition of telomerase in human A549 cells at 25 uM after 24 hrs by TRAP assay in presence of 20 uM of intracellular calcium chelator BAPTA-AM pretreated for 1 hr; format: cell-based
[20] = target: Telomerase reverse transcriptase (Homo sapiens) (UniProt O14746); experiment: Inhibition of telomerase in human A549 cells assessed as increase of intracellular calcium release after 24 hrs using Fluo-3 AM staining by microscopic analysis in presence of BAPTA-AM pretreated for 1 hr; format: cell-based
[21] = target: Telomerase reverse transcriptase (Homo sapiens) (UniProt O14746); experiment: Inhibition of telomerase in human A549 cells at 25 uM after 24 hrs by TRAP assay in presence of 10 uM of MEK inhibitor U0126 pretreated for 1 hr; format: cell-based
A549 [22] = experiment: Reduction of hTERT mRNA expression in human A549 cells after 6 hrs by RT-PCR analysis; format: functional, cell-based
[23] = target: Telomerase reverse transcriptase (Homo sapiens) (UniProt O14746); experiment: Inhibition of telomerase in human A549 cells at 25 uM after 24 hrs by TRAP assay in presence of 50 uM of PI3 K inhibitor LY-294002 pretreated for 1 hr; format: cell-based
[24] = target: Telomerase reverse transcriptase (Homo sapiens) (UniProt O14746); experiment: Inhibition of telomerase in human A549 cells assessed as increase of intracellular calcium release after 24 hrs using Fluo-3 AM staining by microscopic analysis; format: cell-based
[25] = target: Telomerase reverse transcriptase (Homo sapiens) (UniProt O14746); experiment: Inhibition of telomerase in human A549 cells at 25 uM after 24 hrs by TRAP assay in presence of 20 nM of nuclear export inhibitor leptomycin B pretreated for 1 hr; format: cell-based
A549 [26] = experiment: Reduction of hTERT protein expression in human A549 cells after 6 hrs by Western blotting; format: functional, cell-based
[27] = target: Telomerase reverse transcriptase (Homo sapiens) (UniProt O14746); experiment: Inhibition of telomerase in human A549 cells at 25 uM after 24 hrs by TRAP assay in presence of 50 uM of MAPK inhibitor SB-203580 pretreated for 1 hr; format: cell-based

inhibition [1]: Active
SMILES: COc1ccc(/C=C/C(=O)c2cc(OC)c(OC)c(OC)c2)cc1OC

inhibition [1]: Active
SMILES: COc1cc(/C=C/C(=O)c2cc(OC)c(OC)c(OC)c2)cc(OC)c1OC

inhibition [1]: inactive
SMILES: COC[C@H](Cc1ccc(OC)c(OC)c1)[C@H](COC)Cc1ccc(OC)c(OC)c1

inhibition [1]: Active
SMILES: COc1cccc(/C=C/C(=O)c2cc(OC)c(OC)c(OC)c2)c1OC

Continued, molecule first:

SMILES: COc1cc(O)c(C(=O)/C=C/c2cccc(OC)c2OC)c(OC)c1
Activity (A549 [2]): Active
Activity (A549 [3]): 23%
Activity (A549 [4]): inactive
inhibition [5]: Active
inhibition [6]: Dose-dependent effect
Activity (A549 [7]): inactive
Activity (A549 [8]): 59%
Activity (A549 [9]): inactive
inhibition [1]: Active
Activity (A549 [10]): inactive
Activity (A549 [11]): 70%
inhibition [12]: Active
Activity (A549 [13]): inactive
Activity (A549 [14]): Dose-dependent effect
inhibition [15]: tde
Activity (A549 [16]): inactive
Activity (A549 [17]): 96%
Activity (A549 [18]): 92%
inhibition [19]: inactive
inhibition [20]: inactive
inhibition [21]: Active
Activity (A549 [22]): Dose-dependent effect
inhibition [23]: Active
inhibition [24]: Dose-dependent effect
inhibition [25]: Active
Activity (A549 [26]): Dose-dependent effect
inhibition [27]: Active

SMILES: C[C@H]1O[C@H](Oc2cc(O)c3c(=O)c(O[C@H]4O[C@H](C)[C@@H](O[C@H]5O[C@H](CO)[C@@H](O)[C@H](O)[C@H]5O)[C@H](O)[C@@H]4O)c(-c4ccc(O)cc4)oc3c2)[C@@H](O)[C@@H](O)[C@@H]1O
inhibition [1]: inactive

SMILES: COc1ccc(/C=C2/COc3cc(O)ccc3C2=O)cc1
inhibition [1]: Active

SMILES: COc1cc(O)c2c(c1OC)O[C@H](c1ccccc1)CC2=O
inhibition [1]: inactive

SMILES: COc1c(O)cc(C(=O)O)cc1O
inhibition [1]: inactive

SMILES: COc1cc(OC)c2c(c1)O[C@H](c1ccccc1)CC2=O
inhibition [1]: inactive

SMILES: COc1cc(C(=O)/C=C/c2ccc(N(C)C)cc2)cc(OC)c1OC
inhibition [1]: inactive
